Data: the supplement of paper PMC10307832

Legend:
Experiment in all cases: relative viability (nuclei count vs DMSO), 5 days (fraction); higher = more cells survive
[1] = system: 201T
Summary of the method: (§1)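 Dosing by pin tool came one day after lung cancer cell lines were seeded in 1536-well plates, using either one drug or a fixed anchor-drug dose plus five library-drug doses (not always all listed) in √10 steps. After 5 days, nuclei were counted on 4× images. Relative viability is treated-well nuclei count divided by vehicle-well nuclei count, and values are medians of duplicate plates.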

[2] = system: BEN
Summary of the method: as §1

[3] = system: CAL-12T
Summary of the method: as §1

[4] = system: COR-L 105
Summary of the method: as §1

[5] = system: H3255
Summary of the method: as §1

[6] = system: HARA
Summary of the method: as §1

[7] = system: HCC-15
Summary of the method: as §1

[8] = system: HCC-827
Summary of the method: as §1

[9] = system: LC-2-ad
Summary of the method: as §1

[10] = system: LCLC-103H
Summary of the method: as §1

[11] = system: LK-2
Summary of the method: as §1

[12] = system: LU99A
Summary of the method: as §1

[13] = system: LXF-289
Summary of the method: as §1

[14] = system: NCI-H1437
Summary of the method: as §1

[15] = system: NCI-H1651
Summary of the method: as §1

[16] = system: NCI-H1792
Summary of the method: as §1

[17] = system: NCI-H2085
Summary of the method: as §1

[18] = system: NCI-H2228
Summary of the method: as §1

[19] = system: NCI-H23
Summary of the method: as §1

[20] = system: NCI-H2405
Summary of the method: as §1

[21] = system: NCI-H322M
Summary of the method: as §1

[22] = system: RERF-LC-KJ
Summary of the method: as §1

[23] = system: UMC-11
Summary of the method: as §1

O=c1[nH]c2ccccc2n1C1CCN(CCCC(c2ccc(F)cc2)c2ccc(F)cc2)CC1 [Pimozide] + Cc1nc(NC(=O)N2CCC[C@H]2C(N)=O)sc1-c1ccnc(C(C)(C)C(F)(F)F)c1 [Alpelisib] (partner 2 µM)
relative viability ([1]; first compound 0.08 µM): 0.999 | relative viability ([1]; first compound 0.253 µM): 1.02 | relative viability ([1]; first compound 0.8 µM): 1.05 | relative viability ([1]; first compound 2.53 µM): 1.01 | relative viability ([1]; first compound 8 µM): 0.921 | relative viability ([2]; first compound 0.08 µM): 1.08 | relative viability ([2]; first compound 0.253 µM): 1.09 | relative viability ([2]; first compound 0.8 µM): 0.961 | relative viability ([2]; first compound 2.53 µM): 0.937 | relative viability ([2]; first compound 8 µM): 1.06 | relative viability ([3]; first compound 0.08 µM): 1.15 | relative viability ([3]; first compound 0.253 µM): 1.07 | relative viability ([3]; first compound 0.8 µM): 1.02 | relative viability ([3]; first compound 2.53 µM): 1.32 | relative viability ([3]; first compound 8 µM): 0.923 | relative viability ([4]; first compound 0.253 µM): 0.854 | relative viability ([4]; first compound 0.8 µM): 0.872 | relative viability ([4]; first compound 2.53 µM): 0.802 | relative viability ([4]; first compound 8 µM): 0.608 | relative viability ([5]; first compound 0.253 µM): 0.569 | relative viability ([5]; first compound 0.8 µM): 0.599 | relative viability ([5]; first compound 2.53 µM): 0.754 | relative viability ([5]; first compound 8 µM): 0.711 | relative viability ([6]; first compound 0.08 µM): 0.718 | relative viability ([6]; first compound 0.253 µM): 0.829 | relative viability ([6]; first compound 0.8 µM): 0.565 | relative viability ([6]; first compound 2.53 µM): 0.675 | relative viability ([6]; first compound 8 µM): 0.728 | relative viability ([7]; first compound 0.08 µM): 0.913 | relative viability ([7]; first compound 0.253 µM): 0.91 | relative viability ([7]; first compound 0.8 µM): 0.832 | relative viability ([7]; first compound 2.53 µM): 0.782 | relative viability ([7]; first compound 8 µM): 0.769 | relative viability ([8]; first compound 0.253 µM): 0.92 | relative viability ([8]; first compound 0.8 µM): 0.956 | relative viability ([8]; first compound 2.53 µM): 0.95 | relative viability ([8]; first compound 8 µM): 1 | relative viability ([9]; first compound 0.08 µM): 0.762 | relative viability ([9]; first compound 0.253 µM): 0.847 | relative viability ([9]; first compound 0.8 µM): 0.934 | relative viability ([9]; first compound 2.53 µM): 0.879 | relative viability ([9]; first compound 8 µM): 0.776 | relative viability ([10]; first compound 0.08 µM): 0.939 | relative viability ([10]; first compound 0.253 µM): 0.853 | relative viability ([10]; first compound 0.8 µM): 1.01 | relative viability ([10]; first compound 2.53 µM): 0.979 | relative viability ([10]; first compound 8 µM): 0.912 | relative viability ([11]; first compound 0.08 µM): 1.12 | relative viability ([11]; first compound 0.253 µM): 1.05 | relative viability ([11]; first compound 0.8 µM): 1.01 | relative viability ([11]; first compound 2.53 µM): 1.01 | relative viability ([11]; first compound 8 µM): 0.779 | relative viability ([12]; first compound 0.08 µM): 0.397 | relative viability ([12]; first compound 0.253 µM): 0.424 | relative viability ([12]; first compound 0.8 µM): 0.42 | relative viability ([12]; first compound 2.53 µM): 0.484 | relative viability ([12]; first compound 8 µM): 0.477 | relative viability ([13]; first compound 0.08 µM): 0.97 | relative viability ([13]; first compound 0.253 µM): 0.955 | relative viability ([13]; first compound 0.8 µM): 1.01 | relative viability ([13]; first compound 2.53 µM): 1.02 | relative viability ([13]; first compound 8 µM): 0.945 | relative viability ([14]; first compound 0.08 µM): 1.04 | relative viability ([14]; first compound 0.253 µM): 0.965 | relative viability ([14]; first compound 0.8 µM): 1.02 | relative viability ([14]; first compound 2.53 µM): 0.862 | relative viability ([14]; first compound 8 µM): 0.916 | relative viability ([15]; first compound 0.08 µM): 0.911 | relative viability ([15]; first compound 0.253 µM): 0.945 | relative viability ([15]; first compound 0.8 µM): 0.945 | relative viability ([15]; first compound 2.53 µM): 1.04 | relative viability ([15]; first compound 8 µM): 0.926 | relative viability ([16]; first compound 0.08 µM): 0.874 | relative viability ([16]; first compound 0.253 µM): 0.661 | relative viability ([16]; first compound 0.8 µM): 0.668 | relative viability ([16]; first compound 2.53 µM): 0.575 | relative viability ([16]; first compound 8 µM): 0.836 | relative viability ([17]; first compound 0.08 µM): 0.928 | relative viability ([17]; first compound 0.253 µM): 0.962 | relative viability ([17]; first compound 0.8 µM): 0.875 | relative viability ([17]; first compound 2.53 µM): 0.981 | relative viability ([17]; first compound 8 µM): 0.864 | relative viability ([18]; first compound 0.08 µM): 0.623 | relative viability ([18]; first compound 0.253 µM): 0.755 | relative viability ([18]; first compound 0.8 µM): 0.735 | relative viability ([18]; first compound 2.53 µM): 0.737 | relative viability ([18]; first compound 8 µM): 0.482 | relative viability ([19]; first compound 0.08 µM): 0.577 | relative viability ([19]; first compound 0.253 µM): 0.575 | relative viability ([19]; first compound 0.8 µM): 0.718 | relative viability ([19]; first compound 2.53 µM): 0.68 | relative viability ([19]; first compound 8 µM): 0.745 | relative viability ([20]; first compound 0.08 µM): 0.782 | relative viability ([20]; first compound 0.253 µM): 0.622 | relative viability ([20]; first compound 0.8 µM): 0.684 | relative viability ([20]; first compound 2.53 µM): 0.741 | relative viability ([20]; first compound 8 µM): 0.61 | relative viability ([21]; first compound 0.253 µM): 0.835 | relative viability ([21]; first compound 0.8 µM): 0.819 | relative viability ([21]; first compound 2.53 µM): 0.695 | relative viability ([21]; first compound 8 µM): 0.716 | relative viability ([22]; first compound 0.08 µM): 0.693 | relative viability ([22]; first compound 0.253 µM): 0.724 | relative viability ([22]; first compound 0.8 µM): 0.807 | relative viability ([22]; first compound 2.53 µM): 0.841 | relative viability ([22]; first compound 8 µM): 0.711 | relative viability ([23]; first compound 0.08 µM): 1.05 | relative viability ([23]; first compound 0.253 µM): 0.967 | relative viability ([23]; first compound 0.8 µM): 1.05 | relative viability ([23]; first compound 2.53 µM): 1.04 | relative viability ([23]; first compound 8 µM): 1.19
